Reference: patent US9682024B2, “Protection against sunburn and skin problems with topical and orally-ingested dosages of zeaxanthin” (ZeaVision, LLC, priority 2002, dated 2017)

Experiments:
human fibroblast cells = conditions: Eichler et al 2002; cited from earlier work
[1] = reported to US-FDA by Roche Vitamins Inc.; cited from earlier work
[2] = cited from earlier work
[3] = in vivo
From the text: One aspect of that project involved testing both zeaxanthin and lutein, in various dosages and formulations, to evaluate the increases that would result in circulating blood, and in retinal tissue, in human volunteers. A set of tests on human volunteers was developed with assistance by outside experts with skill and experience in that type of planning, and proper steps were taken to obtain informed consent from all volunteers.

[4] = Tolerability and excretion of high oral zeaxanthin dosages; type: in vivo, human
skin [5] = experiment: Darkening of skin color after oral zeaxanthin; type: in vivo, human
Protocol: (§1) That dosage was in the range of about 60 mg of zeaxanthin per day for roughly 2 weeks, then about 80 mg/day for a week).
(§2) One coworker began taking 10 mg/day during April, and increased to 20 mg/day during May, and then increased to 40 mg/day during June. […] In July, they increased their dosage to 80 mg/day during several week-long periods, to see what effect it would have on skin color, and on sunburn resistance.
(§3) After seeing and hearing the highly positive results obtained by the two people described in Examples 1 and 2, another coworker decided to also begin taking zeaxanthin at 40 mg/day, starting a couple of weeks before going on a summer vacation with their family.
(§4) A third coworker began taking 10 mg of zeaxanthin per day. Although they were aware of the above-described anecdotal reports of sunburn protection being provided by higher dosages, they decided to not alter their dosage, and they stayed at a dosage of 10 mg/day.
Promptly after that baseline determination, this person began ingesting 30 mg of zeaxanthin per day (10 mg with […] morning meal, and 20 mg with […] evening meal, using the 10 mg capsules available from ZeaVision LLC). During that time, […] continued to take the same anti-oxidant regimen as before. […] […] then re-tested […], using the same UV lamp and procedures as before.

skin [6] = experiment: Minimal erythemal dosage (MED) test with medical-grade UV lamp after oral zeaxanthin; type: in vivo, human
skin [7] = experiment: Sunburn protection during prolonged exposure to direct sunlight after oral zeaxanthin; type: in vivo, human
Protocol: as §1
While in the Caribbean, they intentionally exposed themself to direct sunlight at a substantially higher intensity than they normally received in their home state of Missouri, for sufficient periods of time to give them an “onset” type of sunburn, which would convert to a suntan over a span of several days if they took proper care of their skin and put lotion on it. […] Instead, any mild redness they experienced in the evening, at the end of a day with a prolonged session in the sun, was not accompanied by sensations of pain, burning, tightness, or dryness in the skin, and it converted to a normal (or slightly reddish, but not uncomfortable) suntan within less than 24 hours.
as §2
On a couple of weekend days during July, and during a family vacation in early August, they deliberately subjected themself to prolonged sun exposure without any sun-blocking lotion, including sessions that normally would have caused them substantial or severe sunburns accompanied by serious discomfort. Instead of receiving those types of sunburns, by the evening of a day like that, they could detect some redness in their skin color, and a heightened condition of skin sensitivity; however, they felt no serious discomfort or sense of “radiating heat” in their skin, and no interference with their ability to sleep comfortably; in addition, by the following day, the redness appeared to be entirely gone.
as §3, §4

[8] = according to Lorenz, US 6,433,025; cited from earlier work
retinas = conditions: in vivo; cited from earlier work
lung cancer = conditions: smokers; daily ingestion of 30 to 60 mg/day; cited from earlier work
skin cells in culture = conditions: quoted from Biesalski et al 2001; cited from earlier work
[9] = test system: skin diseases such as porphyria; conditions: cited from earlier work

In the case of CC(C)=CCC/C(C)=C/C=C/C(C)=C/C=C/C(C)=C/C=C/C=C(C)/C=C/C=C(C)/C=C/C=C(\C)CCC=C(C)C [lycopene], the “amount of carotenoid needed for optimal protection” value (“amount of carotenoid needed” below) (human fibroblast cells) is given as 0.05 nmol/mg protein.

In the case of CC1=C(/C=C/C(C)=C/C=C/C(C)=C/C=C/C=C(C)/C=C/C=C(C)/C=C/C2=C(C)C[C@@H](O)CC2(C)C)C(C)(C)C[C@H](O)C1 [zeaxanthin], the “No Adverse Effect Level (NOAEL)” value [1] is listed as 1200 mg/day, the solubility in water [2] is listed as “not soluble in water” and the “dosage response in circulating blood concentrations” value [3] is listed as “valid dosage response”. The fecal coloration ([4]; high dosages, humans) was “changes in fecal coloration”, the adverse effects ([4]; second inventor, 80 mg/day) was “no adverse effects” and the skin color change (skin [5]; Example 1, about 60 mg/day roughly 2 weeks, then about 80 mg/day for a week) was “noticeable change in the color and tint of their skin”. For the same compound, the skin color change (skin [5]; Example 2 coworker, 40 mg/day) was “slight but noticeable darkening of their skin”, the skin color change (skin [5]; Example 2 coworker, 80 mg/day during several week-long periods) was “noticeably darker” and the skin color change (skin [5]; Example 3 coworker, 40 mg/day for a couple of weeks) was “mildly darker and more tanned shade”. For the same compound, the skin color change (skin [5]; Example 4 coworker, 10 mg/day) was “could not detect any change in their skin color”, the skin coloration (skin [5]; all volunteers who ingested 30 mg or more per day) was “darkened coloration” and the skin color change (skin [5]; first inventor, 30 mg/day for three weeks) was “slightly perceptible color change in the palms of the hands”. For the same compound, the “MED increase, post-ingestion compared to pre-ingestion” value (skin [6]; each volunteer of the UV lamp tests, 30 mg/day or higher) was over 30%, the “MED level relative to baseline value” (skin [6]; first inventor, 60 mg/day for another 3 weeks, baseline 7) was “more than double” and the “post-ingestion MED (minimal erythemal dosage)” value (“post-ingestion MED” for short) (skin [6]; first inventor, oral 30 mg/day for 3 weeks, baseline 7.0 minutes, on top of anti-oxidant regimen) was 10.5 min. For the same compound, the “post-ingestion MED” value (skin [6]; first inventor, then 60 mg/day for another 3 weeks, baseline 7.0 minutes) was 16 min, the “MED value relative to baseline” value (skin [6]; second volunteer, 60 mg/day for 20 days) was “doubled” and the “post-ingestion MED” value (skin [6]; second volunteer, 60 mg/day for 20 days, baseline 5.0 minutes) was 10 min. For the same compound, the “redness of longest-duration UV-exposed skin patches” value (skin [6]; two subjects after ingesting zeaxanthin, UV up to >20 minutes and up to 15 minutes) was “plateau effect”, the “peeling or flaking of clearly UV-burned spots” value (skin [6]; two subjects, post-ingestion tests, after several days) was “did not begin peeling or flaking” and the “time for mild redness to convert to normal suntan” value (skin [7]; Example 1, about 60 then 80 mg/day) was “less than 24 hours”. The “sunburn after prolonged direct sunlight” value (skin [7]; Example 1, about 60 then 80 mg/day, Caribbean) was “did not get sunburned in the normal manner”, the “sunburn after prolonged sun exposure without sun-blocking lotion” value (skin [7]; Example 2 coworker, up to 80 mg/day) was “excellent protection against sunburn” and the “sunburn after prolonged sun exposure with no protective lotion” value (skin [7]; Example 3 coworker, 40 mg/day) was “had not suffered any sunburns”. The “sunburn after prolonged session of exposure to the sun” value (skin [7]; Example 4 coworker, 10 mg/day) was “suffered a noticeable sunburn”.

For CC1=C[C@H](O)CC(C)(C)[C@H]1/C=C/C(C)=C/C=C/C(C)=C/C=C/C=C(C)/C=C/C=C(C)/C=C/C1=C(C)C[C@@H](O)CC1(C)C [lutein], the “amount of carotenoid needed” value (human fibroblast cells) is listed as 0.30 nmol/mg protein.

For CC1=C(/C=C/C(C)=C/C=C/C(C)=C/C=C/C=C(C)/C=C/C=C(C)/C=C/C2=C(C)C(=O)[C@@H](O)CC2(C)C)C(C)(C)C[C@H](O)C1=O [astaxanthin], the “potency as anti-oxidant protective agent versus other carotenoids” value [8] is given as “roughly ten times the potency”.

For CC1=C(/C=C/C(C)=C/C=C/C(C)=C/C=C/C=C(C)/C=C/C=C(C)/C=C/C2=C(C)C(=O)CCC2(C)C)C(C)(C)CCC1=O [canthaxanthin], the retinal side effect (retinas) is listed as “canthaxanthin crystals were being formed and deposited in the retinas”.

In the case of CC1=C(/C=C/C(C)=C/C=C/C(C)=C/C=C/C=C(C)/C=C/C=C(C)/C=C/C2=C(C)CCCC2(C)C)C(C)(C)CCC1 [β-carotene], the “elevation of risk of lung cancer” value (lung cancer) is listed as about 30%, the “oxidant properties in cultured skin cells” value (skin cells in culture) is listed as “unexpected prooxidant properties” and the “effective dosage level to treat skin diseases” value [9] is listed as 180 mg/day. For the same compound, the “amount of carotenoid needed” value (human fibroblast cells) was 0.40 nmol/mg protein.
